Assay results taken from ChEMBL document CHEMBL5291721, “A preclinical secondary pharmacology resource illuminates target-adverse drug reaction associations of marketed drugs” (Nat Commun, 2023).

Experiments:
Melanocortin receptor 3 = Melanocortin receptor 3 (Homo sapiens, UniProt P41968)
Adenosine receptor A2a = Adenosine receptor A2a (Homo sapiens, UniProt P29274)
[1] = target: Beta-1 adrenergic receptor (Homo sapiens, UniProt P08588); type: functional
Adenosine receptor A1 = target: T1, Adenosine receptor A1 (Homo sapiens, UniProt P30542)
T1 sequence (P30542 whole entry): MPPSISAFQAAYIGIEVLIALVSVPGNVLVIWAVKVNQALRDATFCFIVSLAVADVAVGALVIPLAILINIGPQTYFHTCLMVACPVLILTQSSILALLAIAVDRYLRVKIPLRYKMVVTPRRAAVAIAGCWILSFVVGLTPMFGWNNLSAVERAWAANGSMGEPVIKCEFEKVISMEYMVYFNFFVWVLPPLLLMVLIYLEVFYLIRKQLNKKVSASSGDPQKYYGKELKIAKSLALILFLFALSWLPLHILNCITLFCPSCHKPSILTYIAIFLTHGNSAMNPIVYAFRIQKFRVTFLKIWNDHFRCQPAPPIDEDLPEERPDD

Vasopressin V1a receptor = Vasopressin V1a receptor (Homo sapiens, UniProt P37288)
Sequence of Vasopressin V1a receptor (P37288 whole entry): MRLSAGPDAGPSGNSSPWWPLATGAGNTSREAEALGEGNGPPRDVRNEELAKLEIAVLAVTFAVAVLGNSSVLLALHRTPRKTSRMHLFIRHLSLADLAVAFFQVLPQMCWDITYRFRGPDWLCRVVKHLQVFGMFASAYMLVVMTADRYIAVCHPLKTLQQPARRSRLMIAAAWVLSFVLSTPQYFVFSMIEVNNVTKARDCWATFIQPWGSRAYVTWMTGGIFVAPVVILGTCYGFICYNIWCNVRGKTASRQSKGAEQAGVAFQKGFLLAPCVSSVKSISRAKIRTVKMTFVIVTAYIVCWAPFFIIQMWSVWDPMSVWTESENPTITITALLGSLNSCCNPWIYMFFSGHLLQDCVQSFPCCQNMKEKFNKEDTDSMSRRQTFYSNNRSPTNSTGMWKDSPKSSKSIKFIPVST

[2] = target: 5-hydroxytryptamine receptor 2B (Homo sapiens, UniProt P41595); type: functional, cell-based
Sequence of 5-hydroxytryptamine receptor 2B (P41595 whole entry): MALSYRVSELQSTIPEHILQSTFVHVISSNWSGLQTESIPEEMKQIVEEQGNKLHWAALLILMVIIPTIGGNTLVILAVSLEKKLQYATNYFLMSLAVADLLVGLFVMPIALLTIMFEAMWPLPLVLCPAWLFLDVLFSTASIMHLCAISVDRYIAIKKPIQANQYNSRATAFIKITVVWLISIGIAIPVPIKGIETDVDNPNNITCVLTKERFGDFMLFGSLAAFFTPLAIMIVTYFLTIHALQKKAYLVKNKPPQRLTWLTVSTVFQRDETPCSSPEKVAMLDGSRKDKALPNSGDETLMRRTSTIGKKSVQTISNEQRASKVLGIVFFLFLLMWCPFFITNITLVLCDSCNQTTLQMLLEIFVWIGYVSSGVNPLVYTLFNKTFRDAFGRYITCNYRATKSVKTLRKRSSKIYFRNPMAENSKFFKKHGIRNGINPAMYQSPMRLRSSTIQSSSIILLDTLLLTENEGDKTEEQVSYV

[3] = target: T2, Muscarinic acetylcholine receptor M1 (Homo sapiens, UniProt P11229); type: functional
T2 sequence (P11229 whole entry): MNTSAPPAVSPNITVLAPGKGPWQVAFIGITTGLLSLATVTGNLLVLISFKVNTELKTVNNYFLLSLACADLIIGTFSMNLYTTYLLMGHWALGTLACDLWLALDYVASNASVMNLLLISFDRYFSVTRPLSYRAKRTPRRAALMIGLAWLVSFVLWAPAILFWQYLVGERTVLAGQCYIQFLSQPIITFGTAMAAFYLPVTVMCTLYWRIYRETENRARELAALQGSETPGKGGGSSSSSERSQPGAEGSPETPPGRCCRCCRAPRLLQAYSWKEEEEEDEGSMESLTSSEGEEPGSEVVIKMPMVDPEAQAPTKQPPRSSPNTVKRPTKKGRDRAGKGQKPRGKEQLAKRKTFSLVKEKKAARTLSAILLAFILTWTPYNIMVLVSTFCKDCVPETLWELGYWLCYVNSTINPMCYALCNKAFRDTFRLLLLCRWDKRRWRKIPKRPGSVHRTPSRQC

D(3) dopamine receptor = D(3) dopamine receptor (Homo sapiens, UniProt P35462)
Sequence of D(3) dopamine receptor (P35462 whole entry): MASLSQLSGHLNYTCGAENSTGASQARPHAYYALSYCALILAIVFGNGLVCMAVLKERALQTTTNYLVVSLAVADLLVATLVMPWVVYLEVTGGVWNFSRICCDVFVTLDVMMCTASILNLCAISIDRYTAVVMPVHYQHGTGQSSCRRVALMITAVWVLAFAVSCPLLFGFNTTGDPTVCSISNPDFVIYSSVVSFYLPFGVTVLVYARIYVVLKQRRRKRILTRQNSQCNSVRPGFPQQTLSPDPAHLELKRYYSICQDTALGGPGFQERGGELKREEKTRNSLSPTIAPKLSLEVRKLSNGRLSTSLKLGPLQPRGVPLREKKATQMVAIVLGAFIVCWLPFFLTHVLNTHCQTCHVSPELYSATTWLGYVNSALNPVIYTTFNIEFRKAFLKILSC

[4] = target: Muscarinic acetylcholine receptor M3 (Homo sapiens, UniProt P20309)
Sequence of Muscarinic acetylcholine receptor M3 (P20309 whole entry): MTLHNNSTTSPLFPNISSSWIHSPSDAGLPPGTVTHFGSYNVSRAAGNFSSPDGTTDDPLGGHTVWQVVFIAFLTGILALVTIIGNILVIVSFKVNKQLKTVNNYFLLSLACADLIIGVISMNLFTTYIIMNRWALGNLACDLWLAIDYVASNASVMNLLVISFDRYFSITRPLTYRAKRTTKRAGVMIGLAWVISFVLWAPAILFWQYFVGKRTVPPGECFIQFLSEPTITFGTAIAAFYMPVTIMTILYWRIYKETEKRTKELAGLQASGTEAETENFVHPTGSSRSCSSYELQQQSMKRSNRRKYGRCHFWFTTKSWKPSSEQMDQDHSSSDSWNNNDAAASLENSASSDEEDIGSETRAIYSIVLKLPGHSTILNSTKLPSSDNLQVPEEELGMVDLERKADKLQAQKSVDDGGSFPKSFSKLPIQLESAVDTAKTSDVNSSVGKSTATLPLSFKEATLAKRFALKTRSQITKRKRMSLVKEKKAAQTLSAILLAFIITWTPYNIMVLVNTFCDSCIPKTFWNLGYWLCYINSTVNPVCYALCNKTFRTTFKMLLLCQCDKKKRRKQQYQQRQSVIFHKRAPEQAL

[5] = target: T3, 5-hydroxytryptamine receptor 1A (Homo sapiens, UniProt P08908); type: functional, cell-based
T3 sequence (P08908 whole entry): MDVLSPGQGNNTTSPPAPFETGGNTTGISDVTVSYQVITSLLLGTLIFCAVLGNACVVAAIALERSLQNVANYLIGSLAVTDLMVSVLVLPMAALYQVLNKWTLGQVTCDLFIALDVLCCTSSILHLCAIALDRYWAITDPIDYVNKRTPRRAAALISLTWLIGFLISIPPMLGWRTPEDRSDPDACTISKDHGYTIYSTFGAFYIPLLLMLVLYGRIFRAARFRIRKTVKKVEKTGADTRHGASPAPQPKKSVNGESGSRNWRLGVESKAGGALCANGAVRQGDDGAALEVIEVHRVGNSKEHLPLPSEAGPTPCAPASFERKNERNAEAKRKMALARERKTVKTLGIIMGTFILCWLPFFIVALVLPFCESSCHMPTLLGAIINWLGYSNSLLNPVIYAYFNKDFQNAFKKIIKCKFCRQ

Histamine H1 receptor = Histamine H1 receptor (Homo sapiens, UniProt P35367)
Sequence of Histamine H1 receptor (P35367 whole entry): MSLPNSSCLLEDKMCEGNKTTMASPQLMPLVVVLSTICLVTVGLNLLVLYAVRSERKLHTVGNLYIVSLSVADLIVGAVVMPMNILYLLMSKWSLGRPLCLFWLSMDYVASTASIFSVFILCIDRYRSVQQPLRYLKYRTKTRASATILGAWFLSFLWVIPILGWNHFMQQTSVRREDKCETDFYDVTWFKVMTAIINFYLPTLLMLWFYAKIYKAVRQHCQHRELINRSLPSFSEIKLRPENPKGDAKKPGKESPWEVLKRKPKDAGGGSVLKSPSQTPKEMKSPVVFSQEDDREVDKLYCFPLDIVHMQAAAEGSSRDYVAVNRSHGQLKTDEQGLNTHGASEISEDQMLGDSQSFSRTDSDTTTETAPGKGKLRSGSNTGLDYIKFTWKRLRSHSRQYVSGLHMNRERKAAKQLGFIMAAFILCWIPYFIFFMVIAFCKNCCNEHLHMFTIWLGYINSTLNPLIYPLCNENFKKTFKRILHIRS

[6] = target: Gamma-aminobutyric acid receptor subunit alpha-1 (Rattus norvegicus, UniProt P62813); type: functional
Sequence of Gamma-aminobutyric acid receptor subunit alpha-1 (P62813 whole entry): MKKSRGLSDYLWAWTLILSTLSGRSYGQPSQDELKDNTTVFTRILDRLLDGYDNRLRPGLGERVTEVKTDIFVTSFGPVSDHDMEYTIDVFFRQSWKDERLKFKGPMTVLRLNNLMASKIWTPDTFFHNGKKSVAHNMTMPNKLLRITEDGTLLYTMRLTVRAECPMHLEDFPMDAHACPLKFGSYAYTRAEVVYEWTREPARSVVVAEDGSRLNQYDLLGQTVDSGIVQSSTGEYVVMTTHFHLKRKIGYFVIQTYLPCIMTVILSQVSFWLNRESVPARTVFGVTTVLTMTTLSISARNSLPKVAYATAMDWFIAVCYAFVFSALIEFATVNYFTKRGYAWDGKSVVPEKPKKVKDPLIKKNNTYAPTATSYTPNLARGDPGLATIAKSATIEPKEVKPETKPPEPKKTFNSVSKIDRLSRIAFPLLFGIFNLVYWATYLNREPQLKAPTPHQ

[7] = target: 3',5'-cyclic-AMP phosphodiesterase 4D (Homo sapiens, UniProt Q08499); type: functional
Sequence of 3',5'-cyclic-AMP phosphodiesterase 4D (Q08499 whole entry): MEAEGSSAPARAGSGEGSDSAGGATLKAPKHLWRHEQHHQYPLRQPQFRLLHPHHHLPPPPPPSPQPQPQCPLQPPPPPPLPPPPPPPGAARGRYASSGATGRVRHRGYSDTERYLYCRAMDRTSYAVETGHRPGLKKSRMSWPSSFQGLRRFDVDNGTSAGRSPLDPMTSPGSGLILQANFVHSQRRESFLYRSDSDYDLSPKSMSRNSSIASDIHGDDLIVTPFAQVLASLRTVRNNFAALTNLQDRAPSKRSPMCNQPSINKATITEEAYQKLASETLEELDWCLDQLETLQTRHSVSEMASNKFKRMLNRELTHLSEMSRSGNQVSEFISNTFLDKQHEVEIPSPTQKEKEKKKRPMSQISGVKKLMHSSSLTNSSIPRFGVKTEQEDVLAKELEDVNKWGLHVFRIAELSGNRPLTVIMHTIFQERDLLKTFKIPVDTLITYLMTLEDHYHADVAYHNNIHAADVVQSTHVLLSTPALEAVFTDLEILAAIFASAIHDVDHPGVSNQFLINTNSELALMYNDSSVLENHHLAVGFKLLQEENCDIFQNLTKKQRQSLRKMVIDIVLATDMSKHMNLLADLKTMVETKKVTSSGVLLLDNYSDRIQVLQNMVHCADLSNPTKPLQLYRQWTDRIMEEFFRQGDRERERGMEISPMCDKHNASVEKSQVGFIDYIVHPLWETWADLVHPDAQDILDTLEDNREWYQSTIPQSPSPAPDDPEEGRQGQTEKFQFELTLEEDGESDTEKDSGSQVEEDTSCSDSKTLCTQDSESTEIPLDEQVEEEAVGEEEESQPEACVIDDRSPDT

Thromboxane A2 receptor = target: T4, Thromboxane A2 receptor (Homo sapiens, UniProt P21731)
T4 sequence (P21731 whole entry): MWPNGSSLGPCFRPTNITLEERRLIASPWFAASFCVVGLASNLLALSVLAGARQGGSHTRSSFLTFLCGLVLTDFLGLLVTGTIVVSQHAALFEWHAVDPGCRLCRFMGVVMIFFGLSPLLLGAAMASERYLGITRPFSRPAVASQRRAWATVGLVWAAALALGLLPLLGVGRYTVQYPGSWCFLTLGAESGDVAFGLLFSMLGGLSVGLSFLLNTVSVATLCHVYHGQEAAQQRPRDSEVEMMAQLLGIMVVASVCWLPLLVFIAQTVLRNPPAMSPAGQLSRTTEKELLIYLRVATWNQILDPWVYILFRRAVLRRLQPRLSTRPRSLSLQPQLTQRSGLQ

[8] = target: T5, Alpha-1A adrenergic receptor (Homo sapiens, UniProt P35348); type: functional, cell-based
T5 sequence (P35348 whole entry): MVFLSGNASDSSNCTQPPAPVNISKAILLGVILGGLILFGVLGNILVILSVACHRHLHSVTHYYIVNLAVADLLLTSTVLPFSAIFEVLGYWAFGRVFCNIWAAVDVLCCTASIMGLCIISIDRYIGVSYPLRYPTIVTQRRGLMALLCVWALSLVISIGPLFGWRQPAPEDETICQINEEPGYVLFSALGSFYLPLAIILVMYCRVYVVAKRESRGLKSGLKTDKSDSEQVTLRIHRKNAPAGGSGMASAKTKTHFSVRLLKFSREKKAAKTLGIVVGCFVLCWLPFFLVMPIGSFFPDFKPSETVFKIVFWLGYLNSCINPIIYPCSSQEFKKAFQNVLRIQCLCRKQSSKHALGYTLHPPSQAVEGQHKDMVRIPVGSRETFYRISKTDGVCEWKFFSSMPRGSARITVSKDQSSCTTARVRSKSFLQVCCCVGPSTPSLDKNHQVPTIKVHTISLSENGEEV

Cannabinoid receptor 1 = Cannabinoid receptor 1 (Homo sapiens, UniProt P21554); type: functional, cell-based
Also: assay procedure not described here.

Sequence of Beta-1 adrenergic receptor (P08588 whole entry): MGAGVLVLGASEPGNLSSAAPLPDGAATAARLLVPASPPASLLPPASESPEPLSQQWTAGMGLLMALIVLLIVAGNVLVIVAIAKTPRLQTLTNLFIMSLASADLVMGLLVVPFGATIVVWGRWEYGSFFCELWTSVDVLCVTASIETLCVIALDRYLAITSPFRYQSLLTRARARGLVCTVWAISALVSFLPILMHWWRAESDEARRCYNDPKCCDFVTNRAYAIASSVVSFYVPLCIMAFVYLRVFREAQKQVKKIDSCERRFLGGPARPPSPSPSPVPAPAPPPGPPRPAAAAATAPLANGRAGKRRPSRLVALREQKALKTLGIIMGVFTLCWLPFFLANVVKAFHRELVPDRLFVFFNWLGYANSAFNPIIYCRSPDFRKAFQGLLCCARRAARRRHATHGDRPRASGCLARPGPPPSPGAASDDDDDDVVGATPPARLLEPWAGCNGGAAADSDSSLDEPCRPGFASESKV
Sequence of Melanocortin receptor 3 (P41968 whole entry): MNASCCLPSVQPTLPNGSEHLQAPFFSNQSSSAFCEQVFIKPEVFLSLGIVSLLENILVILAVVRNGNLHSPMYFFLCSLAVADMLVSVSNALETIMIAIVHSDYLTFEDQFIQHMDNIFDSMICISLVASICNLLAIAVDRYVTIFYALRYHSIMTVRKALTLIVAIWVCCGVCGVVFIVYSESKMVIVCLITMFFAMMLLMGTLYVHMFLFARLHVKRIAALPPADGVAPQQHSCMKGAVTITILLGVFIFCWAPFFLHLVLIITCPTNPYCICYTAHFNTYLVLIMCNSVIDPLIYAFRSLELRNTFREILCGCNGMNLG
Sequence of Adenosine receptor A2a (P29274 whole entry): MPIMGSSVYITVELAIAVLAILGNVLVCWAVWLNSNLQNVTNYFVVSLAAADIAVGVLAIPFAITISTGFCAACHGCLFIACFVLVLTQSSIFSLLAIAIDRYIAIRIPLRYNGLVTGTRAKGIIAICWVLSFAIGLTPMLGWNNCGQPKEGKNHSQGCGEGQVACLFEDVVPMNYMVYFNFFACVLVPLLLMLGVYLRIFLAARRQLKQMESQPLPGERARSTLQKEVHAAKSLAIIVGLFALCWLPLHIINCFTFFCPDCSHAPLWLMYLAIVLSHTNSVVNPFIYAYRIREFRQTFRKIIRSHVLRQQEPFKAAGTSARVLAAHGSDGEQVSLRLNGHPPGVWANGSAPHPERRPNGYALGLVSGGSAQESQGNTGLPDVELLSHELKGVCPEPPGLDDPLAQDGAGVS

Row | Structure (SMILES) | AC50 (Melanocortin receptor 3) | AC50 (Adenosine receptor A2a) | AC50 [1] | AC50 (Adenosine receptor A1) | AC50 (Vasopressin V1a receptor) | AC50 [2] | AC50 [3] | AC50 (D(3) dopamine receptor) | AC50 [4] | AC50 [5] | AC50 (Histamine H1 receptor) | AC50 [6] | AC50 [7] | AC50 (Thromboxane A2 receptor) | AC50 [8] | AC50 (Cannabinoid receptor 1)
1 | CCC(CC)(CC(=O)Nc1cccc(/C=C/c2nc(C3CCC3)cs2)c1)C(=O)O | > 30 µM | > 30 µM | 14 µM | > 30 µM | > 30 µM |  |  |  |  |  |  |  |  |  |  | 
2 | O=[N+]([O-])O[C@@H]1CO[C@H]2[C@@H]1OC[C@@H]2O [ISOSORBIDE MONONITRATE] | > 30 µM | > 30 µM | > 10 µM | > 30 µM | > 10 µM | > 10 µM | > 10 µM | > 10 µM | > 10 µM | > 10 µM | > 10 µM | > 10 µM | > 30 µM | > 30 µM |  | 
3 | O=[N+]([O-])c1cn2c(n1)OC[C@@H](OCc1ccc(OC(F)(F)F)cc1)C2 [PRETOMANID] | > 30 µM | > 30 µM | > 10 µM | > 30 µM | > 10 µM |  | > 10 µM | > 10 µM | > 10 µM |  | > 10 µM | > 10 µM | > 10 µM | > 30 µM |  | 
4 | Cc1oc(=O)oc1CN1CCN(c2cc3c(cc2F)c(=O)c(C(=O)O)c2n3C(C)S2)CC1 (configuration not stated) [PRULIFLOXACIN] |  |  |  |  |  | > 30 µM | > 30 µM | > 30 µM | > 30 µM |  | > 30 µM | > 30 µM | > 30 µM |  | > 30 µM | > 30 µM
5 | Cc1cc(C)c(NC(=O)CN(CC(=O)O)CC(=O)O)c(C)c1Br [MEBROFENIN] |  |  |  |  |  | > 30 µM | > 30 µM | 22 µM | > 30 µM |  | > 30 µM | > 30 µM | > 30 µM |  | > 30 µM | > 30 µM
6 | COC1=C(OC)C(=O)C(C/C=C(\C)CC/C=C(\C)CC/C=C(\C)CC/C=C(\C)CC/C=C(\C)CC/C=C(\C)CC/C=C(\C)CC/C=C(\C)CC/C=C(\C)CCC=C(C)C)=C(C)C1=O [UBIDECARENONE] |  |  |  |  |  | > 30 µM | > 30 µM | > 30 µM | > 30 µM | > 30 µM | > 30 µM | > 30 µM | > 30 µM |  | > 30 µM | > 30 µM
7 | CC[C@H]1CN2CCc3cc(OC)c(OC)cc3[C@@H]2C[C@@H]1C[C@H]1NCCc2cc(OC)c(OC)cc21 [EMETINE] | > 30 µM | > 30 µM | > 30 µM | > 30 µM | > 30 µM | > 30 µM |  |  |  | > 30 µM |  | > 30 µM | > 30 µM | > 30 µM | > 30 µM | > 30 µM
8 | CN1CCN(C2=Nc3ccccc3Sc3ccc(Cl)cc32)CC1 [CLOTHIAPINE] |  |  |  |  |  | 1.3 µM | 1.2 µM | 0.35 µM | 2 µM | > 30 µM | 0.02 µM | > 30 µM | > 30 µM |  | > 30 µM | 
9 | CC(=O)c1ccc2c(c1)N(CCCN(C)C)c1ccccc1S2 [ACEPROMAZINE] |  |  |  |  |  |  |  | 0.013 µM |  |  |  |  |  |  |  | 
10 | CN(C)CCc1c[nH]c2ccc(C[C@H]3COC(=O)N3)cc12 [ZOLMITRIPTAN] | > 30 µM | > 30 µM | > 30 µM | > 30 µM | > 30 µM | > 30 µM | > 30 µM | > 30 µM | > 30 µM |  | > 30 µM | > 30 µM | > 30 µM |  | 14 µM | 
11 | CN(C)CC/C=C1\c2ccccc2CSc2ccccc21 [DOTHIEPIN] | 25 µM | > 30 µM | > 30 µM | > 30 µM | > 30 µM | 3.6 µM |  | 3 µM |  | > 30 µM | 0.019 µM | > 30 µM | > 30 µM | > 30 µM | > 30 µM | > 30 µM
12 | CCOc1ccc(Cc2cc([C@@H]3O[C@H](CO)[C@@H](O)[C@H](O)[C@H]3O)ccc2Cl)cc1 [DAPAGLIFLOZIN] | > 30 µM | > 30 µM | > 10 µM | > 30 µM | > 30 µM |  | > 10 µM | > 30 µM | > 30 µM |  | > 10 µM | > 10 µM | > 30 µM | > 30 µM |  | 
13 | COc1ccccc1N1CCN(CC(O)COc2cccc3ccccc23)CC1 (configuration not stated) [NAFTOPIDIL] | > 30 µM | > 30 µM | 1.1 µM |  |  | 0.84 µM | > 30 µM | 0.42 µM | > 30 µM | > 30 µM | 0.75 µM | > 30 µM | > 30 µM | > 30 µM | > 30 µM | > 30 µM
14 | COc1cc2nc(N3CCN(C(=O)c4ccco4)CC3)nc(N)c2cc1OC [PRAZOSIN] | > 30 µM | > 30 µM | > 10 µM | > 30 µM | > 10 µM | 26 µM |  | > 30 µM |  |  |  | > 10 µM | > 30 µM | > 30 µM |  | > 30 µM
15 | CCCC1O[C@@H]2C[C@H]3[C@@H]4CCC5=CC(=O)C=C[C@]5(C)[C@H]4[C@@H](O)C[C@]3(C)[C@]2(C(=O)CO)O1 (some centres not stated) [BUDESONIDE] | > 10 µM | > 10 µM | > 10 µM | > 10 µM | > 10 µM | > 10 µM |  | > 30 µM |  | > 10 µM |  | > 10 µM | > 30 µM | > 10 µM |  | 
16 | NC1CCN(c2c(F)cc3c(=O)c(C(=O)O)cn(C4CC4)c3c2Cl)C1 (configuration not stated) [CLINAFLOXACIN] |  |  |  |  |  |  |  |  | 250 µM |  |  |  |  |  |  | 
17 | CCCCCNC(=N)N/N=C/c1c[nH]c2ccc(OC)cc12 [TEGASEROD] | 11.5 µM | > 30 µM | 7.02 µM | > 30 µM | 21.3 µM | 0.343 µM | > 30 µM | 3.5 µM | > 30 µM | > 30 µM | > 30 µM | 13 µM | 19 µM | 8.39 µM | > 30 µM | 
